Measured values from patent publication EP1379634B1 (THE UNIVERSITY OF GEORGIA RESEARCH FOUNDATION, INC., priority 2001, dated 2002).
Starred links: 1 amine or outer side, 2 acyl side, 3 side chain; linkers in the order of their positions; H or OH if unused. Residues, ends and D or L forms follow the SMILES beside them. *: point of attachment. AFC = O=c1cc(C(F)(F)F)c2ccc(N*)cc2o1; Suc = O=C(CCC(=O)[*:2])[*:1]

Tested on: T. solium purified cysteine protease
Experiment: Human IgG degradation, western blot (Step IV)
Format: biochemical, Taenia solium
Conditions: overnight, 37°C, 18 hrs
Description: To conduct this assessment, a western blot was performed. IgG digestion was detected by incubating 20 ul of T. solium purified enzyme or T. […] extract with 1 ug of human IgG (Sigma, St. Louis) in a final volume of 100 ul of assay buffer. Exogenous thiol activation was assessed by incubating the assay in the presence or absence of cysteine. The catalytic class of the IgG protease was determined by pre-incubating the following proteinase inhibitors at their active concentrations, with the enzyme: E 64 (10^-6 M , cysteine proteinases), phenylmethylsulfonyl fluoride (PMSF) (10^-3 M, serine proteinases), pepstatin A (10^-6M, aspartic proteinases), and 1,10 phenanthroline (10^-3 M, metalloproteinases), and the vehicle, Mu-Leu-Tyr-AFC (10^-3 M). After addition of IgG, the assay was incubated overnight (37°C, 18 hrs). Subsequently, 100 ul of the mixture was boiled in sodium dodecyl sulfate polyacrylamide gel electrophoresis (SDS-PAGE) sample buffer with 2% 2-mercaptoethanol, separated by 12.5% SDS-PAGE, and blotted onto a polyvinylidene difluoride membrane. Tris buffered saline containing 0.1 % bovine serum albumin and 0.05% Tween 20 (TBS-BSA) was used to block nonspecific binding. […]

Structure (SMILES) | inhibition of cleavage of human IgG
CC(C)C[C@H](NC(=O)CCC(=O)O)C(=O)N[C@@H](Cc1ccc(O)cc1)C(=O)Nc1ccc2c(C(F)(F)F)cc(=O)oc2c1 [suc-Leu-Tyr-AFC] (Suc-Leu-Tyr-{AFC}) | ability to inhibit
CC(C)CC(NC(=O)C1OC1C(=O)O)C(=O)NCCCCNC(=N)N (centres unmarked) [E64, reference compound] | Inhibition was noted
